Data: article PMC7265341, “Quantifying CDK inhibitor selectivity in live cells” (Nature Communications, 2020)
Read-outs that look alike come from different tables or passages of the source. Each block holds one compound with its values, some of them ahead of it.

How the values were obtained:
CDK12/Cyclin K = CDK12/Cyclin K (Homo sapiens, UniProt Q9NYV4); experiment: NanoBRET live-cell target engagement, CDK12-NanoLuc/Cyclin K in HEK-293; assay type: binding; details: for IC50: read-out: CDK12/K IC50
CDK3/Cyclin E1 = CDK3/Cyclin E1 (Homo sapiens, UniProt Q00526); experiment: NanoBRET live-cell target engagement, CDK3-NanoLuc/Cyclin E1 in HEK-293; assay type: binding
[1] = CDK12/K, average, read-out: Inhibition at 10µM (%)
[2] = CDK12/K, experiment 1, read-out: Inhibition at 10µM (%)
[3] = CDK12/K, experiment 2, read-out: Inhibition at 10µM (%)
[4] = CDK3/E1, average, read-out: Inhibition at 10µM (%)
[5] = CDK3/E1, experiment 1, read-out: Inhibition at 10µM (%)
[6] = CDK3/E1, experiment 2, read-out: Inhibition at 10µM (%)
[7] = 10µM, average of experiments, read-out: CDK12/K Inhibition at 10µM (%)
[8] = 10µM, independent experiment 1, read-out: CDK12/K Inhibition at 10µM (%)
[9] = 10µM, independent experiment 2, read-out: CDK12/K Inhibition at 10µM (%)
[10] = 10µM, average of experiments, read-out: CDK3/E1 Inhibition at 10µM (%)
[11] = 10µM, independent experiment 1, read-out: CDK3/E1 Inhibition at 10µM (%)
[12] = 10µM, independent experiment 2, read-out: CDK3/E1 Inhibition at 10µM (%)
[13] = average (± SEM where n=3), read-out: CDK3/E1 IC50
[14] = independent experiment 1, read-out: CDK3/E1 IC50
[15] = independent experiment 2, read-out: CDK3/E1 IC50

Chain of CDK12/Cyclin K (Q9NYV4 1-1481 isoform Q9NYV4-2): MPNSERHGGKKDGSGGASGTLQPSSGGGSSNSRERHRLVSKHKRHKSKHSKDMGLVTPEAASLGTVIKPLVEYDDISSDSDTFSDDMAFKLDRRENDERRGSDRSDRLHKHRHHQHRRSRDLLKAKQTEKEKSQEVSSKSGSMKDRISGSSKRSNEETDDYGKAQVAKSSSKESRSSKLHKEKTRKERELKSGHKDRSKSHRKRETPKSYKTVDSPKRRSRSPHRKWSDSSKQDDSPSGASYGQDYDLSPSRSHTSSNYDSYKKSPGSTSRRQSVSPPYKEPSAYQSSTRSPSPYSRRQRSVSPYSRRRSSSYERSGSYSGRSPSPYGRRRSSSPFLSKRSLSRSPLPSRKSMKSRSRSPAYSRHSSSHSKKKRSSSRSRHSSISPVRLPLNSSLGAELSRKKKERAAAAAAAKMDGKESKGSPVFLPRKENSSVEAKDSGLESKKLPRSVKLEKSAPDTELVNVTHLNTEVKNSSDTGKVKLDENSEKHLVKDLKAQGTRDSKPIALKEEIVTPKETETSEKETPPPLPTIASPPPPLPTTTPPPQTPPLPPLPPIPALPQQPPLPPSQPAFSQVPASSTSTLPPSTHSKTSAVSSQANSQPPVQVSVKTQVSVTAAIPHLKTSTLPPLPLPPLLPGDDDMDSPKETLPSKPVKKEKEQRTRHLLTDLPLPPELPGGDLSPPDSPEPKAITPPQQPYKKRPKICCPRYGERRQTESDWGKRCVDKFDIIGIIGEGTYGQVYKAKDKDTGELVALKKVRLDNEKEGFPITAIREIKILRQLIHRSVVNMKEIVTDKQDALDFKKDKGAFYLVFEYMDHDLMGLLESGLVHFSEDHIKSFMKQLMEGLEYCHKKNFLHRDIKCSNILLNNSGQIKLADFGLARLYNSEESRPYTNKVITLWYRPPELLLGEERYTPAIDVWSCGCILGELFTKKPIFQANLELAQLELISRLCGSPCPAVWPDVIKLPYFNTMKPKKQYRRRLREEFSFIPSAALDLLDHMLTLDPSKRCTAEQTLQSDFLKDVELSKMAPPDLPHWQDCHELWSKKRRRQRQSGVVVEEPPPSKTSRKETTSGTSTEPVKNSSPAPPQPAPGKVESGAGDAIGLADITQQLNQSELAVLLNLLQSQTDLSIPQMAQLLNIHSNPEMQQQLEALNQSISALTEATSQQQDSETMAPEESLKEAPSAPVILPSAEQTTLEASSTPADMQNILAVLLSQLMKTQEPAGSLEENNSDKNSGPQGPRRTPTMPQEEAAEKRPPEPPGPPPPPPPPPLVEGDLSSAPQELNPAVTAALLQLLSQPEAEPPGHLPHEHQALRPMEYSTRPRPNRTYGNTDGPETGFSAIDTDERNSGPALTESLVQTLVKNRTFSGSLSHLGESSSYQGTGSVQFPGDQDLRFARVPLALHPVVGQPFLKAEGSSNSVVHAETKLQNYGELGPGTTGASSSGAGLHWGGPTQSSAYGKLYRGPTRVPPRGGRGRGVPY
Chain of CDK12/Cyclin K (O75909 whole entry partner): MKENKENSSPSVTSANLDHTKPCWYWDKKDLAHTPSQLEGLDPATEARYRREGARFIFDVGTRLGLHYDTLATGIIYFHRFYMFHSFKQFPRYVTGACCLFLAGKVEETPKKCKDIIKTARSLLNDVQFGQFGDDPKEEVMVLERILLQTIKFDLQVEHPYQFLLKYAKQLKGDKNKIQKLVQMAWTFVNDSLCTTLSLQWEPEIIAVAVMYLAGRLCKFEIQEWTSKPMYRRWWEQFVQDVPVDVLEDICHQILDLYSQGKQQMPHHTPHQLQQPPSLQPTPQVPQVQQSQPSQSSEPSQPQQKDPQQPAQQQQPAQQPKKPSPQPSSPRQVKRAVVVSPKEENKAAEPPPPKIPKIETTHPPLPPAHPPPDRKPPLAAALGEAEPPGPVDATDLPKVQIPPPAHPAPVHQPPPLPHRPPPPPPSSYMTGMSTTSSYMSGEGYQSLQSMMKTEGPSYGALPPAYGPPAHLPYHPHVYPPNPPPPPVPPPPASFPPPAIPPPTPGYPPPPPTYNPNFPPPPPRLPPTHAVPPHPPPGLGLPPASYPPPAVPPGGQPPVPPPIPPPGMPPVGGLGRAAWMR
Chain of CDK3/Cyclin E1 (Q00526 whole entry): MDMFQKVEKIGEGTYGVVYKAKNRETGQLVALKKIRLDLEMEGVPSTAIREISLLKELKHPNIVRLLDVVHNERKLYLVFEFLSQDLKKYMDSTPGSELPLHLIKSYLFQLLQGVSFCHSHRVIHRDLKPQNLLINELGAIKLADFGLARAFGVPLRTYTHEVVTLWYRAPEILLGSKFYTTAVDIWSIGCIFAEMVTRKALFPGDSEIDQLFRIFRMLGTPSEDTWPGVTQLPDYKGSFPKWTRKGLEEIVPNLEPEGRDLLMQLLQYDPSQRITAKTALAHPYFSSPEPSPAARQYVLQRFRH
Chain of CDK3/Cyclin E1 (P24864 whole entry partner): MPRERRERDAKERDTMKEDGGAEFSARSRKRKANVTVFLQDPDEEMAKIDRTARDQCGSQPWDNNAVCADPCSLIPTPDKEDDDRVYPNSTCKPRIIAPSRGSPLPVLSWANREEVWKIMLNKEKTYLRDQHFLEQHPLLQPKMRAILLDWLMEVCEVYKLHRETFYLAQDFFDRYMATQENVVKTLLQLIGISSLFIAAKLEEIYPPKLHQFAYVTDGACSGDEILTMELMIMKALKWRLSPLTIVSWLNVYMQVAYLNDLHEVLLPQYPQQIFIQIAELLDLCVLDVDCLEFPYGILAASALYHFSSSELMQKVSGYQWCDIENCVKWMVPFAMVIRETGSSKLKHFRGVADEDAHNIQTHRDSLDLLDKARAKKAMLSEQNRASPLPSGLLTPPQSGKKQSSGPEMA

SMILES: CC(C)c1c2cc(-c3ccnc(N[C@H]4CC[C@H](NC5CCOCC5)CC4)n3)ccc2nn1C [LY2857785]
Inhibition at 10µM (%) (CDK12/Cyclin K; CDK12/K, average): 43.6% | Inhibition at 10µM (%) (CDK12/Cyclin K; CDK12/K, experiment 1): 48.1% | Inhibition at 10µM (%) (CDK12/Cyclin K; CDK12/K, experiment 2): 39.1% | Inhibition at 10µM (%) (CDK3/Cyclin E1; CDK3/E1, average): 89.1% | Inhibition at 10µM (%) (CDK3/Cyclin E1; CDK3/E1, experiment 1): 89.3% | Inhibition at 10µM (%) (CDK3/Cyclin E1; CDK3/E1, experiment 2): 88.9%

SMILES: CNC(=O)c1nn(C)c2c1C(C)(C)Cc1cnc(Nc3ccc(N4CCN(C)CC4)cc3)nc1-2 [Milciclib]
inhibition at 10 µM (CDK12/Cyclin K; [2]): 16.8% | inhibition at 10 µM (CDK12/Cyclin K; [3]): 10.6% | inhibition at 10 µM (CDK12/Cyclin K; read-out: Inhibition at 10µM (%), CDK12/K, average): 13.7% | inhibition at 10 µM (CDK3/Cyclin E1; [4]): 77.7% | inhibition at 10 µM (CDK3/Cyclin E1; [5]): 74.4% | inhibition at 10 µM (CDK3/Cyclin E1; [6]): 80.9%

SMILES: N#CCNC(=O)c1ccc(-c2ccnc(Nc3ccc(N4CCOCC4)cc3)n2)cc1 [Momelotinib]
inhibition at 10 µM (CDK12/Cyclin K; [1]): -8.8% | inhibition at 10 µM (CDK12/Cyclin K; [2]): 5.9% | inhibition at 10 µM (CDK12/Cyclin K; [3]): -23.5% | inhibition at 10 µM (CDK3/Cyclin E1; [4]): 28.6% | inhibition at 10 µM (CDK3/Cyclin E1; [5]): 27.5% | inhibition at 10 µM (CDK3/Cyclin E1; [6]): 29.8%

SMILES: CS(=O)(=O)N1CCC(NC(=O)c2[nH]ncc2NC(=O)c2c(Cl)cccc2Cl)CC1 [NVP-LCQ195]
Inhibition at 10µM (%) (CDK12/Cyclin K; CDK12/K, average): 24.3% | Inhibition at 10µM (%) (CDK12/Cyclin K; CDK12/K, experiment 1): 26.4% | Inhibition at 10µM (%) (CDK12/Cyclin K; CDK12/K, experiment 2): 22.1% | Inhibition at 10µM (%) (CDK3/Cyclin E1; CDK3/E1, average): 97.9% | IC50 (CDK3/Cyclin E1; CDK3/E1, average (± SEM where n=3), read-out: IC50): 36 nM | Inhibition at 10µM (%) (CDK3/Cyclin E1; CDK3/E1, experiment 1): 98.1% | IC50 (CDK3/Cyclin E1; CDK3/E1, experiment 1, read-out: IC50): 36 nM | Inhibition at 10µM (%) (CDK3/Cyclin E1; CDK3/E1, experiment 2): 97.6% | IC50 (CDK3/Cyclin E1; CDK3/E1, experiment 2, read-out: IC50): 36 nM | IC50 (CDK3/Cyclin E1; live HEK-293, 2 h, mean ± S.E.M. (n=3) or mean (n=2), read-out: IC50 for CDK/cyclin complexes, CDK3/E1): 36 nM

SMILES: CC(C)CC(=O)Nc1[nH]nc2c1CN(C(=O)C1CCN(C)CC1)C2(C)C [PHA-793887]
inhibition at 10 µM (CDK12/Cyclin K; [7]): 31.4% | inhibition at 10 µM (CDK12/Cyclin K; [8]): 33% | inhibition at 10 µM (CDK12/Cyclin K; [9]): 29.9% | inhibition at 10 µM (CDK3/Cyclin E1; [10]): 93.2% | inhibition at 10 µM (CDK3/Cyclin E1; [11]): 93.4% | inhibition at 10 µM (CDK3/Cyclin E1; [12]): 93% | IC50 (CDK3/Cyclin E1; [13]): 280 nM | IC50 (CDK3/Cyclin E1; [14]): 165 nM | IC50 (CDK3/Cyclin E1; [15]): 394 nM

SMILES: CN(C)C/C=C/C(=O)Nc1ccc(C(=O)Nc2cccc(Nc3ncc(Cl)c(-c4c[nH]c5ccccc45)n3)c2)cc1 [THZ1]
CDK12/K Inhibition at 10µM (%) (CDK12/Cyclin K; 10µM, average of experiments): 45.5% | CDK12/K Inhibition at 10µM (%) (CDK12/Cyclin K; 10µM, independent experiment 1): 26.4% | CDK12/K Inhibition at 10µM (%) (CDK12/Cyclin K; 10µM, independent experiment 2): 64.6% | CDK12 occupancy at 10 µM (CDK12/Cyclin K; primary screen, live HEK-293): ~50% | CDK3/E1 Inhibition at 10µM (%) (CDK3/Cyclin E1; 10µM, average of experiments): 55.0% | CDK3/E1 Inhibition at 10µM (%) (CDK3/Cyclin E1; 10µM, independent experiment 1): 14.7% | CDK3/E1 Inhibition at 10µM (%) (CDK3/Cyclin E1; 10µM, independent experiment 2): 95.2%

Results, then the compound that gave them:

inhibition at 10 µM (CDK12/Cyclin K; [1]): 8.7% | inhibition at 10 µM (CDK12/Cyclin K; [2]): -0.9% | inhibition at 10 µM (CDK12/Cyclin K; [3]): 18.4% | inhibition at 10 µM (CDK3/Cyclin E1; [4]): 3.3% | inhibition at 10 µM (CDK3/Cyclin E1; [5]): 5% | inhibition at 10 µM (CDK3/Cyclin E1; [6]): 1.6%
SMILES: CC(C)N1CCN(c2ccc(Nc3ncc4cc5n(c4n3)C3(CCCCC3)CNC5=O)nc2)CC1 [Lerociclib]

inhibition at 10 µM (CDK12/Cyclin K; [1]): -3.9% | inhibition at 10 µM (CDK12/Cyclin K; [2]): -2.7% | inhibition at 10 µM (CDK12/Cyclin K; [3]): -5% | inhibition at 10 µM (CDK3/Cyclin E1; [4]): 24.7% | inhibition at 10 µM (CDK3/Cyclin E1; [5]): 10.5% | inhibition at 10 µM (CDK3/Cyclin E1; [6]): 38.9%
SMILES: CN1CCN(c2ccc(Nc3ncc4cc(C#N)c(=O)n(C5CCCC5)c4n3)cc2)CC1 [ON123300]

Inhibition at 10µM (%) (CDK12/Cyclin K; CDK12/K, average): 3.3% | Inhibition at 10µM (%) (CDK12/Cyclin K; CDK12/K, experiment 1): 2.5% | Inhibition at 10µM (%) (CDK12/Cyclin K; CDK12/K, experiment 2): 4.1% | Inhibition at 10µM (%) (CDK3/Cyclin E1; CDK3/E1, average): 51.8% | Inhibition at 10µM (%) (CDK3/Cyclin E1; CDK3/E1, experiment 1): 52.6% | Inhibition at 10µM (%) (CDK3/Cyclin E1; CDK3/E1, experiment 2): 51.0%
SMILES: CN1CCC(c2c(O)cc(O)c3c(=O)cc(-c4ccccc4Cl)oc23)C1CO (centres unmarked) [P276-00]

inhibition at 10 µM (CDK12/Cyclin K; [7]): 1.7% | inhibition at 10 µM (CDK12/Cyclin K; [8]): 4.5% | inhibition at 10 µM (CDK12/Cyclin K; [9]): -1.1% | inhibition at 10 µM (CDK3/Cyclin E1; [10]): 39.4% | inhibition at 10 µM (CDK3/Cyclin E1; [11]): 41.5% | inhibition at 10 µM (CDK3/Cyclin E1; [12]): 37.2%
SMILES: CC(C)[C@H](CO)Nc1nc(Nc2ccc(C(=O)O)c(Cl)c2)c2ncn(C(C)C)c2n1 [Purvalanol B]

inhibition at 10 µM (CDK12/Cyclin K; [7]): 60.9% | inhibition at 10 µM (CDK12/Cyclin K; [8]): 45.8% | inhibition at 10 µM (CDK12/Cyclin K; [9]): 76% | IC50 (CDK12/Cyclin K; average (n=2)): 680 nM | IC50 (CDK12/Cyclin K; independent experiment 1): 610 nM | IC50 (CDK12/Cyclin K; independent experiment 2): 750 nM | inhibition at 10 µM (CDK3/Cyclin E1; [10]): 97.1% | inhibition at 10 µM (CDK3/Cyclin E1; [11]): 98.4% | inhibition at 10 µM (CDK3/Cyclin E1; [12]): 95.9% | IC50 (CDK3/Cyclin E1; [13]): 44 nM | IC50 (CDK3/Cyclin E1; [14]): 45 nM | IC50 (CDK3/Cyclin E1; [15]): 43 nM
SMILES: CN1C/C=C/CCOc2cccc(c2)-c2ccnc(n2)Nc2cccc(c2)C1 [SB1317]
